Experimental data as given in patent US4603132A, “Phenothiazine compounds with anti-bronchospastic activity and pharmaceutical compositions containing them” (priority 1984, dated 1986).
Where two headings read alike, the source gives them in different places.

Legend:
[1] = tested on: bronchial asthma; details: literature, in words; cited from earlier work
[2] = tested on: hypotension induced by ACh i.v.; test: inhibition of the hypotension induced by ACh i.v. in the anestetized rat (systemic effect; absorption by inhalation); format: in vivo; details: for absorption through inhalatory route: i.v. vs inhalation, in words
Excerpt: The absorption of compound (I) by inhalation in comparison with mequitazine has been studied by comparing their sistemic effects with intravenous and inhalatory routes. The inhibiting effect of the tested compounds on the hypotension induced by ACh i.v. in the anestetized rat has been used.

[3] = tested on: isolated ileum of guinea pig (ACh); test: spasm induced by ACh in the isolated ileum of guinea pig
[4] = tested on: isolated ileum of guinea pig (histamine); test: spasm induced by histamine in the isolated ileum of guinea pig
[5] = tested on: isolated ileum of guinea pig (serotonine); test: spasm induced by serotonine in the isolated ileum of guinea pig
[6] = tested on: isolated ileum of guinea pig (PGF2 alpha); test: spasm induced by PGF2 alpha in the isolated ileum of guinea pig
[7] = acute toxicity test in the mouse; format: in vivo; details: for LD50: in vivo
[8] = tested on: bronchospasm; test: anti-bronchospastic activity (general statement); details: in words
[9] = tested on: isolated trachea of guinea pig (KCl); test: spasm induced by KCl in the isolated trachea of guinea pig; details: for IC50: Cavia porcellus
[10] = tested on: bronchospasm induced by ACh aerosol; details: for activity in bronchospasm induced by ACh aerosol: awake guinea pig, in words, i.v. in b22, mequitazine at doses up to 20 times higher or essentially subtoxic
[11] = tested on: isolated trachea of guinea pig (histamine); test: spasm induced by histamine in the isolated trachea of guinea pig; details: for IC50: Cavia porcellus
[12] = tested on: bronchospasm induced by histamine aerosol; details: for ED50: Cavia porcellus, iv
[13] = tested on: isolated trachea of guinea pig (methacholine); details: for IC50: Cavia porcellus; for activity greater than mequitazine: isolated guinea pig trachea, methacholine
[14] = tested on: bronchospasm induced by ACh i.v.; details: for ED50: Cavia porcellus, iv, anestetized guinea pig, ACh i.v.
[15] = tested on: H1 receptors; details: literature, in words, cited from earlier work
[16] = listed as 3-(10-H-phenothiazin-methyl)-1-methyl-1-azoniabicyclo[2.2.2]-octane iodide
[17] = vs classic anti-histaminic drugs

| Compound | effect in bronchial asthma / bronchial hyperreactivity [1] | absorption through inhalatory route ([2]; anestetized rat) | LD50 ([7]; iv) | LD50 ([7]; oral route) | anti-bronchospastic activity [8] | IC50 [9] | IC50 [11] | ED50 [12] | IC50 [13] | ED50 ([14]; compound by inhalatory route) | ED50 ([14]; compound by venous route) | further results |
| --- | --- | --- | --- | --- | --- | --- | --- | --- | --- | --- | --- | --- |
| CN(C)CCC(c1ccc(Cl)cc1)c1ccccn1 (centres unmarked) [clopheniramine] | singularly inefficacious in the bronchial asthma | – | – | – | – | – | – | – | – | – | – | – |
| C[N+]12CCC(CC1)C(CN1c3ccccc3Sc3ccccc31)C2 (centres unmarked) [compound (I), 3-(10-H-phenothiazin-methyl)-1-methyl-1-azoniabicyclo[2.2.2]-octane iodide] | – | very poorly absorbed | 3.15 mg/kg | ~700 mg/kg | powerful anti-bronchospastic activity | 38 µM | 0.074 µM | 0.12 µmol/kg | 0.034 µM | 0.026 µmol/kg | 0.051 µmol/kg | ED50 ([2]; Rattus norvegicus, iv): 1.17 µmol/kg; absorption lower than that of mequitazine ([2]; inhalatory route): at least 24 times; ED50 ([2]; inhibition of hypotension, anestetized rat, inhalatory administration): can not be calculated (25 μmol/kg); times more active than mequitazine [3]: 7 times; times more active than mequitazine [4]: 15 times; times more active than mequitazine [5]: 6 times; times more active than mequitazine [6]: 2 times; absorption by oral route ([7]; inferred from i.v. vs oral LD 50, in words): very modest; activity greater than mequitazine ([9]; isolated guinea pig trachea, KCl): 3 times; ED50 ([10]; Cavia porcellus, iv): 0.41 µmol/kg; activity in bronchospasm induced by ACh aerosol [10]: intense and dose-dependent activity; activity in bronchospasm induced by ACh aerosol [10, 16]: remarkable power; activity greater than mequitazine ([11]; isolated guinea pig trachea, histamine): 50 times; activity higher than that of mequitazine ([12]; awake guinea pig, histamine aerosol, i.v.): about 5 times; activity greater than mequitazine [13]: 1200 times; activity greater than mequitazine [13, 16]: 1000 times; anti-bronchospastic activity higher than that of mequitazine ([14]; inhalatory route): 20 times; activity higher than that of mequitazine ([14]; venous route): 13 times |
| COc1ccc(CN(CCN(C)C)c2ccccn2)cc1 [mepyramine] | singularly inefficacious in the bronchial asthma | – | – | – | – | – | – | – | – | – | – | – |
| c1ccc2c(c1)Sc1ccccc1N2CC1CN2CCC1CC2 (centres unmarked) [mequitazine, reference compound] | protective action | complete absorption | 23.7 mg/kg | ~350 mg/kg | very slightly active or even inactive | 110 µM | 3.7 µM | 0.65 µmol/kg | 40 µM | 0.499 µmol/kg | 0.674 µmol/kg | ED50 ([2]; inhaled or nasal, inhibition of hypotension, anestetized rat, inhalatory administration, read-out: ED 50): 4.06 µmol/kg; ED50 ([2]; iv, inhibition of hypotension, anestetized rat, i.v. route, read-out: ED 50): 4.01 µmol/kg; action on H1 receptors [15]: histamine antagonism at the level of the H1 receptors; duration of action [15, 17]: long lasting action; side effects of the CNS level [15, 17]: scarcity of side effects |
| CC(CN1c2ccccc2Sc2ccccc21)N(C)C (centres unmarked) [promethazine] | singularly inefficacious in the bronchial asthma | – | – | – | – | – | – | – | – | – | – | – |
